# In patent publication US20240034731A1, “AZA-QUINAZOLINE COMPOUNDS AND METHODS OF USE” (Iambic Therapeutics, Inc., priority 2022, published 2024):
# Like-named read-outs stand apart in the source and are kept apart here.
# Experiments:
# [1] = biological target: CDK6/Cyclin D3 (Homo sapiens (Human), UniProt Q00534); assay: CDK6/Cyclin D3 ADP-Glo Kinase Assay; assay type: biochemical; details: 100 uM ATP, read-out: CDK6/ CyclinD3 IC50
# Procedure: CDK6/Cyclin D3 ADP-Glo Kinase Assay
# The purpose of the CDK6/Cyclin D3 assay is to evaluate the inhibition (% inhibition and IC50 values) in the presence of small molecule inhibitors by using a Luminescent based ADP-Glo assay. CDK6/Cyclin D3 catalyzes the production of ADP from ATP. ADP-Glo assay monitors ADP producing biochemical reactions. ADP-Glo is performed in 2 steps upon completion of kinase reaction: a combined termination of kinase reaction and depletion of remaining ATP in the first step, and conversion of generated ADP to […] and the newly produced ATP to light output using luciferase/luciferin reaction in the second step. The luminescent signal generated is proportional to the ADP concentration produced and is correlated with the kinase activity CDK6/Cyclin D3 was purchased from Carna. […] The assay was initiated with the addition of ATP-containing substrate solution, following a 30-minute pre-incubation of enzyme and inhibitor at room temperature in the reaction mixture. The reaction was stopped after 90 minutes at room temperature by the addition of 10 uL of ADP-GLO Reagent. After a 90-minute incubation, 20 uL of Kinase Detection Reagent was added. Samples were incubated for 40 minutes, after which plate well luminescence was measured on a Envision microplate reader. The IC50 determinations were made from a plot of the fractional velocity as a function of inhibitor concentration fit to the 4 parameters IC50 equation.
# [2] = test system: MCF-7 cells; assay: Cell Growth Inhibition, MCF-7 (CellTiterGlo, 6 days); assay type: cell-based; details: Homo sapiens, MCF7, 144 h, MCF-7, 6-day treatment
# Text: (§1) MCF-7 and OVCAR-3 cells were used to evaluate the anti-proliferation activity of the CDK inhibitors. MCF-7 (ATCC, HTB-22) cells are epithelial cells from a patient with ER+ metastatic adenocarcinoma. OVCAR-3 (ATCC, HTB-161) cells were derived from malignant ascites of a patient with ovarian cancer and are known to have CCNE1 amplification. Both cell lines were maintained in RPMI media supplemented with 10% fetal bovine serum. For cell growth inhibition assay, CDK inhibitors in DMSO solution were dispensed with either Echo 655 (Beckman Coulter) or Tecan D300e (HP) into 384-well plates (Corning #3765) and the 384-well plates were UV-sterilized prior to the assay. The inhibitors were typically tested in the 10-10,000 nM concentration range with half-log serial dilutions. MCF-7 or OVCAR-3 (500 cells/30 μL/well) were added to each well using Multidrop Combi (ThermoFisher) using standard cassettes. The assay plates with cells were cultured at 37° C., 5% CO2 for 6 days. At the end of the 6-day treatment, 30 μL of CellTiterGlo 2.0 (Promega) was added to each well and the luminescent signal was read using CLARIOstar plus (BMG). The percentage of cell growth inhibition (% CGI) was calculated using the following formula 00 CGI=100-100×luminescencesampie/luminescencecontroi. The half maximal inhibitory concentration (IC50) was determined by nonlinear curve fitting (four parameters, variable slope).
# [3] = biological target: CDK4/Cyclin D1 (Homo sapiens (Human), UniProt P11802); assay: CDK4/Cyclin D1 CHEF Assay (AQT0258 peptide); assay type: biochemical; details: 200 uM ATP, read-out: CDK4/ CyclinD1 AQT IC50
# Text: CDK4/Cyclin D1 CHEF Assay
# The purpose of CDK4/Cyclin D1 assay is to evaluate the inhibition (% inhibition and IC50 values) of small molecule inhibitors by using a Chelation-Enhance Fluorescence (CHEF) assay. In a CHEF assay, phosphorylation of a peptide substrate results in proportional increase in fluorescence. CHEF kinase assay use peptide substrates containing a synthetic alpha-amino acid with a side chain bearing an 8-hydroxyquinoline derivative (sulfonamido-oxide, Sox). Upon phosphorylation of a nearby serine, threonine or tyrosine and in the presence of Mg(II), the spectral properties of the Sox residue are altered, emitting 485 nm wavelength light when excited with a 360 nm wavelength light source. CDK4/Cyclin D1 catalyzes the phosphoryl transfer to the SOX-labeled substrate peptide AQT0258 from Assayquant Technologies. […] The reaction was initiated with the addition of substrate solution, following a 30-minute pre-incubation of enzyme and inhibitor at 22° C. in the reaction mix. Reactions were allowed to proceed for 3 hrs at 22° C., followed by fluorescence read of the reaction. The IC50 determinations were made from a plot of the fractional velocity as a function of inhibitor concentration fit to the 4 parameters IC50 equation.
# [4] = biological target: CDK2/Cyclin E1 (Homo sapiens (Human), UniProt P24941); assay: CDK2/Cyclin E1 Full length ADP-Glo Kinase Assay; assay type: biochemical; details: 20 uM ATP, read-out: CDK2/ CyclinE1 IC50
# Procedure: CDK2/Cyclin E1 Full length ADP-Glo Kinase Assay
# (§2) The purpose of CDK2/Cyclin E1 assay is to evaluate the inhibition (% inhibition and IC50 values) of small molecule inhibitors by using a Luminescent based ADP-Glo assay. CDK2/Cyclin E1 full length catalyzes the production of ADP from ATP. ADP-Glo assay monitors ADP producing biochemical reactions. ADP-Glo is performed in 2 steps upon completion of kinase reaction: a combined termination of kinase reaction and depletion of remaining ATP in the first step, and conversion of generated ADP to ATP and the newly produced ATP to light output using luciferase/luciferin reaction in the second step. The luminescent signal generated is proportional to the ADP concentration produced and is correlated with the kinase activity. CDK2/Cyclin E1 was purchased from Eurofins (Cat 14-475M). […] The assay was initiated with the addition of ATP-containing substrate solution, following a 30-minute pre-incubation of enzyme and inhibitor at room temperature in the reaction mixture. The reaction was stopped after 90 minutes at room temperature by the addition of 10 uL of ADP-GLO Reagent. After a 90 minute incubation, 20 uL of Kinase Detection Reagent was added. Samples were incubated for 40 minutes, after which plate well luminescence was measured on a Envision microplate reader. The IC50 determinations were made from a plot of the fractional velocity as a function of inhibitor concentration fit to the 4 parameters IC50 equation.
# [5] = test system: OVCAR-3 cells; assay: Cell Growth Inhibition, OVCAR-3 (CellTiterGlo, 6 days); assay type: cell-based; details: Homo sapiens, 144 h, OVCAR-3, 6-day treatment
# Text: as §1
# [6] = biological target: CDK1/Cyclin B1 (Homo sapiens (Human), UniProt P06493); assay: CDK1/Cyclin B1 ADP-Glo Kinase Assay; assay type: biochemical
# Procedure: CDK1/Cyclin B1 ADP-Glo Kinase Assay
# as §2, with “CDK1/Cyclin B1” for “CDK2/Cyclin E1”, “CDK1/Cyclin B1” for “CDK2/Cyclin E1 full length”, “Carna” for “Eurofins”, “04-102).” for “14-475M).”
# [7] = ADP-Glo, 80 uM ATP, read-out: CDK1 Cyclin B1 IC50
# CDK6/Cyclin D3, sequence (Q00534 whole entry): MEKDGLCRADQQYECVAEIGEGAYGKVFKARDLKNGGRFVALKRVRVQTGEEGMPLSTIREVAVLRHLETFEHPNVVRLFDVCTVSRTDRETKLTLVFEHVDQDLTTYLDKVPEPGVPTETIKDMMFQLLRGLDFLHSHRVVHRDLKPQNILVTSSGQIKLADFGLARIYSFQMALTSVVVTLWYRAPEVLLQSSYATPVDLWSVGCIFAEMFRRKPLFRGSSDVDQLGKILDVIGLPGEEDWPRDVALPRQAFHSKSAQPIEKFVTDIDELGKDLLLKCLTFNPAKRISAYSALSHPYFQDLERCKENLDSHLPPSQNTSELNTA
# CDK6/Cyclin D3, sequence (P30281 whole entry partner): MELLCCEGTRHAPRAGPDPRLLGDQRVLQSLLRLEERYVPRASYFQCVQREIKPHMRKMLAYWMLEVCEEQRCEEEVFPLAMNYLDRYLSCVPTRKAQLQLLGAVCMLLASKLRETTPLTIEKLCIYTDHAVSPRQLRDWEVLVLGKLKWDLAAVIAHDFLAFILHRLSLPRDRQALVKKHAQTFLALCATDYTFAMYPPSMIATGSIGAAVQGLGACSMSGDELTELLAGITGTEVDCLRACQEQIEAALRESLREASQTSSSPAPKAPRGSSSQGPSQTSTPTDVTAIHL
# CDK1/Cyclin B1, sequence (P06493 whole entry): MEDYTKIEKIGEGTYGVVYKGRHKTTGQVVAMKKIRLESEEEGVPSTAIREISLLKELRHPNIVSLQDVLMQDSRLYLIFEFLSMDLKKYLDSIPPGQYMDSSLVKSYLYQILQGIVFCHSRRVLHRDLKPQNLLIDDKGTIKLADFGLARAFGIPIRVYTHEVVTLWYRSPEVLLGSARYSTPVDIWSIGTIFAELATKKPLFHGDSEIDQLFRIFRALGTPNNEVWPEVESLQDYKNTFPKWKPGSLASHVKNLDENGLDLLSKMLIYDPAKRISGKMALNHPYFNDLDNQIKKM
# CDK1/Cyclin B1, sequence (P14635 whole entry partner): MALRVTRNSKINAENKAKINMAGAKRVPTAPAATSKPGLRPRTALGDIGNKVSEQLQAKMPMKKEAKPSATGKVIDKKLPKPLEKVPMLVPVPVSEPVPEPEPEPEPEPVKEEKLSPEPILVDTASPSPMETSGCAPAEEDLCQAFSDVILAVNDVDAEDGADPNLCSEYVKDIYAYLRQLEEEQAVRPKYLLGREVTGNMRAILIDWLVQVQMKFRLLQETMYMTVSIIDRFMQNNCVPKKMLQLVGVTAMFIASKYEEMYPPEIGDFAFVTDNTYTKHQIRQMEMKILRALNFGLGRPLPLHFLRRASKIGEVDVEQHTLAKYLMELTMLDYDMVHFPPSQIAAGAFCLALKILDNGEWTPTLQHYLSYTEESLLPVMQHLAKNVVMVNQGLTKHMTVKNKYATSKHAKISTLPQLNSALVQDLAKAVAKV
# CDK4/Cyclin D1, sequence (P11802 whole entry): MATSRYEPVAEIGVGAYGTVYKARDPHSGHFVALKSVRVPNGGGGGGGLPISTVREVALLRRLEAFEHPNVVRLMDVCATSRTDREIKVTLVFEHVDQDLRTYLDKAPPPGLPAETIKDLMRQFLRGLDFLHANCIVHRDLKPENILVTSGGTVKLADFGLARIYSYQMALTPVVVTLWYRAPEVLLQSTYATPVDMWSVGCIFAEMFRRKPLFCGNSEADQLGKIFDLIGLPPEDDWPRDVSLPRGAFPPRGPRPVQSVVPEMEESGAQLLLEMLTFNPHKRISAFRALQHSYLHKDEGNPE
# CDK4/Cyclin D1, sequence (P24385 whole entry partner): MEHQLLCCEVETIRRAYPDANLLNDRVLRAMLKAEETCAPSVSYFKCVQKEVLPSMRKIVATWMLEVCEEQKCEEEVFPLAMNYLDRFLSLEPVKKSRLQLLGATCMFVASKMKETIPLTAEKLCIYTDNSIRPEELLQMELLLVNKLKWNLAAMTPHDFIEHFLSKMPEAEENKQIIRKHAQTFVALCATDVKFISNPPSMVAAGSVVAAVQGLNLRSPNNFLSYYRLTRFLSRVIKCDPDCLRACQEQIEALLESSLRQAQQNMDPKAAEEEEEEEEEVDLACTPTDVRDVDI
smiles,measurement,setting,value
"Cc1cc2cnc(NC3CCN(S(=O)(=O)C4CC4)CC3)nc2c(N2CC3(CCN(C)C3)C2)n1 [Compound 49, N-(1-(cyclopropylsulfonyl)piperidin-4-yl)-6-methyl-8-(6-methyl-2,6-diazaspiro[3.4]octan-2-yl)pyrido[3,4-d]pyrimidin-2-amine]",IC50,[1],200 to 500 nM
same,IC50,[2],500 to 2000 nM
same,IC50,[3],< 200 nM
same,IC50,[4],< 200 nM
same,IC50,[5],500 to 2000 nM
same,IC50,[6]; [7],500 to 2000 nM
"Cc1cc2cnc(NC3CCN(S(C)(=O)=O)CC3)nc2c(N2CC3(C2)CC(C)(O)C3)n1 [Compound 79, 6-methyl-2-(6-methyl-2-((1-(methylsulfonyl)piperidin-4-yl)amino)pyrido[3,4-d]pyrimidin-8-yl)-2-azaspiro[3.3]heptan-6-ol]",IC50,[1],200 to 500 nM
same,IC50,[2],> 2000 nM
same,IC50,[3],< 200 nM
same,IC50,[4],< 200 nM
same,IC50,[5],500 to 2000 nM
same,IC50,[6]; [7],200 to 500 nM
"COC1CC2(C1)CN(c1nc(C)cc3cnc(NC4CCN(S(C)(=O)=O)CC4)nc13)C2 [Compound 76, 8-(6-methoxy-2-azaspiro[3.3]heptan-2-yl)-6-methyl-N-(1-(methylsulfonyl)piperidin-4-yl)pyrido[3,4-d]pyrimidin-2-amine]",IC50,[1],< 200 nM
same,IC50,[2],500 to 2000 nM
same,IC50,[3],< 200 nM
same,IC50,[4],< 200 nM
same,IC50,[5],> 2000 nM
same,IC50,[6]; [7],200 to 500 nM
"Cc1cc2cnc(NC3CCN(S(C)(=O)=O)CC3)nc2c(N2CC(O)(C(F)F)C2)n1 [Compound 91, 3-(difluoromethyl)-1-(6-methyl-2-((1-(methylsulfonyl)piperidin-4-yl)amino)pyrido[3,4-d]pyrimidin-8-yl)azetidin-3-ol]",IC50,[1],< 200 nM
same,IC50,[2],500 to 2000 nM
same,IC50,[3],< 200 nM
same,IC50,[4],< 200 nM
same,IC50,[5],200 to 500 nM
same,IC50,[6]; [7],< 200 nM
"CS(=O)(=O)N1CCC(Nc2ncc3cc(C(F)F)nc(N4CC5(CCNCC5(F)F)C4)c3n2)CC1 [Compound 90, 8-(5,5-difluoro-2,7-diazaspiro[3.5]nonan-2-yl)-6-(difluoromethyl)-N-(1-(methylsulfonyl)piperidin-4-yl)pyrido[3,4-d]pyrimidin-2-amine]",IC50,[1],< 200 nM
same,IC50,[2],500 to 2000 nM
same,IC50,[3],< 200 nM
same,IC50,[4],< 200 nM
same,IC50,[5],500 to 2000 nM
same,IC50,[6]; [7],< 200 nM
"Cc1cc2cnc(NC3CCN(S(=O)(=O)C4CC4)CC3)nc2c(N2CC3(CCNCC3(F)F)C2)n1 [Compound 61, N-(1-(cyclopropylsulfonyl)piperidin-4-yl)-8-(5,5-difluoro-2,7-diazaspiro[3.5]nonan-2-yl)-6-methylpyrido[3,4-d]pyrimidin-2-amine]",IC50,[1],< 200 nM
same,IC50,[2],500 to 2000 nM
same,IC50,[3],< 200 nM
same,IC50,[4],< 200 nM
same,IC50,[5],500 to 2000 nM
same,IC50,[6]; [7],< 200 nM
"CS(=O)(=O)N1CCC(Nc2ncc3cc(C(F)F)nc(N4CC5(CNCCC5(F)F)C4)c3n2)CC1 [Compound 65, 8-(9,9-difluoro-2,6-diazaspiro[3.5]nonan-2-yl)-6-(difluoromethyl)-N-(1-(methylsulfonyl)piperidin-4-yl)pyrido[3,4-d]pyrimidin-2-amine]",IC50,[1],< 200 nM
same,IC50,[2],200 to 500 nM
same,IC50,[3],< 200 nM
same,IC50,[4],< 200 nM
same,IC50,[5],200 to 500 nM
same,IC50,[6]; [7],< 200 nM
"Cc1cc2cnc(NC3CCN(S(=O)(=O)C4CC4)CC3)nc2c(N2CC3(C2)CN(C2CC2)C3)n1 [Compound 48, 8-(6-cyclopropyl-2,6-diazaspiro[3.3]heptan-2-yl)-N-(1-(cyclopropylsulfonyl)piperidin-4-yl)-6-methylpyrido[3,4-d]pyrimidin-2-amine]",IC50,[1],200 to 500 nM
same,IC50,[2],> 2000 nM
same,IC50,[3],< 200 nM
same,IC50,[4],< 200 nM
same,IC50,[5],> 2000 nM
same,IC50,[6]; [7],500 to 2000 nM
"Cc1cc2cnc(Nc3ccc(N4CC5(CN(C)C5)C4)cc3)nc2c(N2CC3(C2)CS(=O)(=O)C3)n1 [Compound 30, 6-(6-methyl-2-((4-(6-methyl-2,6-diazaspiro[3.3]heptan-2-yl)phenyl)amino)pyrido[3,4-d]pyrimidin-8-yl)-2-thia-6-azaspiro[3.3]heptane 2,2-dioxide]",IC50,[1],200 to 500 nM
same,IC50,[2],> 2000 nM
same,IC50,[3],200 to 500 nM
same,IC50,[4],200 to 500 nM
same,IC50,[5],> 2000 nM
same,IC50,[6]; [7],> 2000 nM
"Cc1cc2cnc(N[C@H]3CC[C@@H](CN(C)C)CC3)nc2c(N2CCC3(C2)CC3(F)F)n1 (stereo partly drawn) [Compound 45, 8-(1,1-difluoro-5-azaspiro[2.4]heptan-5-yl)-N-((1s,4s)-4-((dimethylamino)methyl)cyclohexyl)-6-methylpyrido[3,4-d]pyrimidin-2-amine]",IC50,[1],500 to 2000 nM
same,IC50,[2],> 2000 nM
same,IC50,[3],< 200 nM
same,IC50,[4],> 2000 nM
same,IC50,[5],> 2000 nM
same,IC50,[6]; [7],1 nM
"Cc1cc2cnc(NC3CCN(S(=O)(=O)c4cnn(C)c4)CC3)nc2c(N2CC(F)(F)C3(CN(C)C3)C2)n1 [Compound 97, 8-(8,8-difluoro-2-methyl-2,6-diazaspiro[3.4]octan-6-yl)-6-methyl-N-(1-((1-methyl-1H-pyrazol-4-yl)sulfonyl)piperidin-4-yl)pyrido[3,4-d]pyrimidin-2-amine]",IC50,[1],< 200 nM
same,IC50,[2],500 to 2000 nM
same,IC50,[3],< 200 nM
same,IC50,[4],< 200 nM
same,IC50,[5],200 to 500 nM
same,IC50,[6],< 200 nM
